Data taken from patent US8497278B2, “Imidazo[1,2-a]pyridine compounds” (priority 2008, dated 2013).

Experiments:
[1] = test system: central benzodiazepine receptors; assay: Central benzodiazepine receptor binding (test of Speth et al.); conditions: 1000 nM of the compound
In short: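 Values are percent inhibition of central benzodiazepine receptor binding at 1000 nM compound (initial single-point screen at 1.0E-09, 1.0E-07 and 1.0E-05 M). Speth et al. binding test; nonspecific binding defined with excess unlabelled ligand and subtracted from total.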

[2] = target: T1, α1 subtype containing GABA-A receptors (Homo sapiens, UniProt P14867+P18507); assay: Two-electrode voltage clamp electrophysiology in Xenopus oocytes, potentiation of GABA EC20 response, α1; type: cell-based; conditions: 100 nM compound; for activation at 0.1 µM: read-out: Percentage of potentiation alpha1
T1 construct: expressed in transfected cells; host or cells: Xenopus laevis oocytes, cRNA injected
In short: (§1)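 Stage 5–6 Xenopus oocytes were injected with cRNA for human α subunit plus β3 and γ2L, then voltage-clamped at −80 mV under ND96 perfusion. Each received 60 μM GABA (EC20), a 1 μM chlordiazepoxide control, and then a single 100 nM compound application.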

[3] = target: T2, α2 subtype containing GABA-A receptors (Homo sapiens, UniProt P18507+P47869); assay: Two-electrode voltage clamp electrophysiology in Xenopus oocytes, potentiation of GABA EC20 response, α2; type: cell-based; conditions: 100 nM compound; for activation at 0.1 µM: read-out: Percentage of potentiation alpha2
T2 construct: expressed in transfected cells; host or cells: Xenopus laevis oocytes, cRNA injected
In short: as §1

Swiss Webster (CFW) mice = assay: Four Plate Test (FPT); type: in vivo; conditions: mouse, 30 min before test, 2 min session
Text: Four Plate Test (FPT) Protocol: The four plate test (FPT) is an animal model of anxiety in which simple ongoing behavior (exploration of novel surroundings) is suppressed by the delivery of mild electric foot-shock contingent to quadrant crossing (Aron, et al., 1971). Clinically effective classes of anxiolytic compounds such as benzodiazepines, selective serotonin reuptake inhibitors, or 5-HT1A receptor agonists produce a marked anti-punishment effect (an increase in punished crossings), which is thought to indicate anxiolytic activity (Aron, et al., 1971; Bourin, et al., 1992; Hascoet, et al., 2000; Ring, et al., 2006). The four plate apparatus (Bioseb, Chaville France) consists of a cage (18×25×16 cm) floored by four identical rectangular metal plates (8×11 cm) separated from one another by a gap of 4 mm. The plates are connected to a shocker unit that can generate electric foot shocks.
Male Swiss Webster (CFW) mice from Charles River (Wilmington, Mass.) were used for the FPT. Mice were received at 3-weeks of age. Upon receipt, mice were assigned unique identification numbers (tail marked) and were group housed with 4 mice per cage in mouse ventilated racks. All animals remained housed in groups of four during the remainder of the study. All mice were acclimated to the colony room for at least one week prior to testing and were subsequently tested at an average age of 4 weeks of age. During the period of acclimation, mice […] were examined on a regular basis, handled, and weighed to assure adequate healtH, D and suitability. Animals were maintained on a 12/12 light/dark cycle. The room temperature was maintained between 20 and 23° C. with a relative humidity maintained between 30% and 70%. Chow and water were provided ad libitum for the duration of the study. In each test, animals were randomly assigned across treatment groups. Alprazolam (0.3 mg/kg) was used as the positive control. Compounds of the present invention, vehicle (45% hydroxypropyl beta-cyclodextrin) and alprazolam were administered orally to all groups (n=10 mice per group) 30 minutes prior to behavioral testing. Following pretreatment, mice were gently placed in the four plate chamber and allowed to explore the enclosure for 18 seconds. After the exploration period, every time the mouse crossed from one plate to another, the experimenter, blind to the dosing conditions, administered a mild electric foot-shock, and referred to as a punished crossing. The intensity and duration of the foot-shock were 0.5 mA for 0.5 seconds. The number of punished crossings was recorded during the 2 min test session. The plates were thoroughly cleaned with 70% ethanol immediately after each mouse. All data were analyzed using an analysis of variance (ANOVA) followed by Fisher's PLSD post hoc test. An effect was considered significance if p<0.05. Statistical outliers above or below 2 standard deviations from the mean in any of the […] were removed from the final analysis.

T1 sequence (P14867 28-456): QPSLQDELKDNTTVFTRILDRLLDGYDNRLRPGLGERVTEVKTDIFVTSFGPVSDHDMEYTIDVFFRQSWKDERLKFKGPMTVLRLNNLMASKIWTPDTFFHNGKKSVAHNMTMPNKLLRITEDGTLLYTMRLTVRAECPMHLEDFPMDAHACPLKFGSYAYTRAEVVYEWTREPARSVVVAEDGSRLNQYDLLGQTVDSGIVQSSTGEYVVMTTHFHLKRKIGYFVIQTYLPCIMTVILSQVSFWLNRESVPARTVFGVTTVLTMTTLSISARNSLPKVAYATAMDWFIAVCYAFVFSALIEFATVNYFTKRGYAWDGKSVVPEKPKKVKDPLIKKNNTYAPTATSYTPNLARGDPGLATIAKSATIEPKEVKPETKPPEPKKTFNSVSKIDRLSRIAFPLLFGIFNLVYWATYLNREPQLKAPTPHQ
T1 sequence (P28472 26-473 partner): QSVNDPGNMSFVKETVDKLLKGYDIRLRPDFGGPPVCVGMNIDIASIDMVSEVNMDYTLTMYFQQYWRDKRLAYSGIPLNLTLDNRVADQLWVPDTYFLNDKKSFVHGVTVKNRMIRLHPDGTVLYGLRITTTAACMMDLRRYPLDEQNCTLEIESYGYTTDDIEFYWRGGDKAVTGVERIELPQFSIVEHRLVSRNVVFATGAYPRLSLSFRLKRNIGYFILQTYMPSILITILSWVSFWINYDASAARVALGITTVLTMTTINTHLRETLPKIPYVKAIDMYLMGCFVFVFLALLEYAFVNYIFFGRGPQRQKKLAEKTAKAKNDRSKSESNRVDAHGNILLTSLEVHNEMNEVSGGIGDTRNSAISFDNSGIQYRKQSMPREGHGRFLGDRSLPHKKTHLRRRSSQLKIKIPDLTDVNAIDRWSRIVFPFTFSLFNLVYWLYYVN
T1 sequence (P18507 40-475): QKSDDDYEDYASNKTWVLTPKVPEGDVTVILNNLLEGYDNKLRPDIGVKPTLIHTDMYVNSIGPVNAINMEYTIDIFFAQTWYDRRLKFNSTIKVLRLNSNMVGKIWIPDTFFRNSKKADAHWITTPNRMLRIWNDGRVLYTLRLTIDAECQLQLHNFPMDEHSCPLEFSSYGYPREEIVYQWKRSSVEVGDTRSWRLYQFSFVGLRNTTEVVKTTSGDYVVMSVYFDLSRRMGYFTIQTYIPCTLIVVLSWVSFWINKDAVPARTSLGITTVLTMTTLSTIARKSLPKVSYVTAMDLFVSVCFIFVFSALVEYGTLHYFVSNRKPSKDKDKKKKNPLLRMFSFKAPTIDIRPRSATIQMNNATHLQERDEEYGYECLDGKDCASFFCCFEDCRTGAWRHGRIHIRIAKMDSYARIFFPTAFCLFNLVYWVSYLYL
T2 sequence (P47869 29-451): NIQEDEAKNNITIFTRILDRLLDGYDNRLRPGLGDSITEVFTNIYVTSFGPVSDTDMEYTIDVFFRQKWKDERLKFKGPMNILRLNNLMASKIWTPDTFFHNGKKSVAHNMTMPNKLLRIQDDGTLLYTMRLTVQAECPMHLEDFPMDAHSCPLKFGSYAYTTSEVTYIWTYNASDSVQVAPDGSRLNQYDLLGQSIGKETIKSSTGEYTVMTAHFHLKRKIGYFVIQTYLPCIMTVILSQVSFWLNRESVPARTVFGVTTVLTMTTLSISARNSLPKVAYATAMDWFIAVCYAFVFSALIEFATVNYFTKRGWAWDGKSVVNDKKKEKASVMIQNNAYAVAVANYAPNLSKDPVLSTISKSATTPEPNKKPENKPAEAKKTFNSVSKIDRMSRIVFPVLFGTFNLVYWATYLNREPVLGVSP
T2 sequence (P28472 26-473 partner): as the sequence (P28472 26-473 partner) above
T2 sequence (P18507 40-475): as the sequence (P18507 40-475) above

SMILES | % Inhibition at 1000 nM for CBZD [1] | activation at 0.1 µM [2] | activation at 0.1 µM [3] | Number of Punished Crossings Mean ± S.E.M. (Swiss Webster (CFW) mice; 3 mg/kg PO) | Number of Punished Crossings Mean ± S.E.M. (Swiss Webster (CFW) mice; 10 mg/kg PO) | Number of Punished Crossings Mean ± S.E.M. (Swiss Webster (CFW) mice; 30 mg/kg PO) | Percentage of potentiation alpha1 [2] | Percentage of potentiation alpha2 [3]
Clc1ccc(-c2nc3cccnn3c2Cn2cncn2)cc1 [Compound 32, 3-((1H-1,2,4-triazol-1-yl)methyl)-2-(4-chlorophenyl)imidazo[1,2-b]pyridazine] | ++ (percentage of inhibition of central BZD site binding is greater than 80% in the presence of 1000 nM of the compound) | 10 to 50% | 10 to 50% | 6.6 ± 0.72 | 6.6 ± 0.67 | 5.7 ± 0.94 |  | 
NC(=O)c1ncn(Cc2c(-c3ccc(Cl)cc3)nc3ccccn23)n1 [Compound 72, 1-((2-(4-chlorophenyl)imidazo[1,2-a]pyridin-3-yl)methyl)-1H-1,2,4-triazole-3-carboxamide] | ++ (percentage of inhibition of central BZD site binding is greater than 80% in the presence of 1000 nM of the compound) | 10 to 50% | ≥ 50% | 5.8 ± 0.63 | 5.2 ± 0.47 | 4.8 ± 0.36 |  | 
Cn1ncnc1Cc1c(-c2ccc(F)cc2)nc2ccc(F)cn12 [Compound 200, 6-fluoro-2-(4-fluorophenyl)-3-((1-methyl-1H-1,2,4-triazol-5-yl)methyl)imidazo[1,2-a]pyridine] | ++ (percentage of inhibition of central BZD site binding is greater than 80% in the presence of 1000 nM of the compound) | 10 to 50% | ≥ 50% | 7.2 ± 0.52 | 8.6 ± 0.43 | 7.5 ± 0.39 |  | 
Clc1ccc(-c2nc3ccccn3c2Cc2ncn[nH]2)cc1 [Compound 211, 3-((1H-1,2,4-triazol-5-yl)methyl)-2-(4-chlorophenyl)imidazo[1,2-a]pyridine] |  | 10 to 50% | ≥ 50% | 7.8 ± 0.59 | 8.6 ± 0.85 | 8.9 ± 0.57 |  | 
CNC(=O)c1nccn1Cc1c(-c2ccc(Cl)cc2)nc2ccccn12 [Compound 77, 1-((2-(4-chlorophenyl)H-imidazo[1,2-a]pyridin-3-yl)methyl)-N-methyl-1H-imidazole-2-carboxamide] | ++ (percentage of inhibition of central BZD site binding is greater than 80% in the presence of 1000 nM of the compound) |  |  | 4.3 ± 0.26 | 4.6 ± 0.31 | 5.0 ± 0.37 | 0 (percentage of potentiation is between about 10% to about −10%) | + (percentage of potentiation is greater than or equal to 10% but less than 50% in the presence of 100 nM of the compound)
Cc1ccn(Cc2c(-c3ccc(Cl)cc3)nc3ccccn23)c(=O)n1 [Compound 105, 1-((2-(4-chlorophenyl)imidazo[1,2-a]pyridin-3-yl)methyl)-4-methylpyrimidin-2(1H)-one] |  | 10 to 50% | 10 to 50% | 6.7 ± 0.34 | 5.5 ± 0.60 | 5.6 ± 0.52 |  | 
